Measured values from article PMC2920546, “Preclinical Pharmacology of BA-TPQ, a Novel Synthetic Iminoquinone Anticancer Agent” (Marine Drugs, 2010).

Key:
[1] = Stability of BA-TPQ in mouse plasma; type: in vitro ADME; details: for Amount Remaining: mouse plasma
Experimental: The stability of BA-TPQ was evaluated at two concentrations (0.5 and 5.0 μM). The compound was incubated under the following conditions: 37 °C for 0, 1, 2, 4, and 8 h; 4 °C for 0, 1, 4, 8, and 24 h; and −80 °C for 0, 1, 2, and 4 weeks. At the designated time points, the samples were extracted and analyzed using the established HPLC analytical method. The stability of the iminoquinone was assessed by comparing the initial concentration (time 0) with the final concentration following incubation of the compound at the noted temperatures, and expressing this difference as a percentage of the initial concentration.

[2] = Pharmacokinetics and tissue distribution in CD-1 mice; type: in vivo
Experimental: (§1) Female ICR/CD-1 (18–20 g) mice were purchased from Harlan Laboratories (Indianapolis, IN), and female nude mice (nu/nu; 4–6 weeks) were purchased from Frederick Cancer Research and Development Center (Frederick, MD). All animal use and care procedures were approved by the Institutional Animal Care and Use Committee (IACUC) of the University of Alabama at Birmingham. All animals were fed with commercial diet and water ad libitum and were on an alternating 12 h light/dark cycle.
(§2) CD-1 and nude mice were randomly divided into groups of three, and were dosed either intravenously (5 mg/kg) or intraperitoneally (10 mg/kg) with BA-TPQ in PEG 400:ethanol:0.9% saline (57.1%:14.3%:28.6%). Before dosing, and at 5, 15, 30, 60 min, and 2, 4, 8, and 24 h after dosing, groups of animals (three/time point) were anesthetized, and blood was collected from the retro-orbital sinus into heparinized tubes. Plasma was obtained by centrifuging the blood samples at 14,000 rpm for 15 min. BA-TPQ was then extracted from plasma and stored at −80 °C. The brain, heart, kidneys, liver, lungs, and spleen were also collected at the same time points during necropsy, blotted on Whatman No. 1 filter paper, trimmed of extraneous fat and connective tissue, weighed, and homogenized in phosphate-buffered saline. The resulting homogenates were stored at −80 °C until further processing and analysis. Urine and feces were collected for 24 hr from mice housed in metabolic cages. After collection, the cages were also washed twice with 200 μL PBS, and the washes were collected and analyzed separately. The total urine was determined as the amount from the urine plus washes 1 and 2. Feces were homogenized in PBS, then extracted using the same procedure used for tissues.
(§3) Six hundred microliters of acetonitrile was added to 200 μL of plasma, urine, cage washes (first and second), or tissue/feces homogenate in an Eppendorf tube to precipitate proteins. After centrifugation at 14,000 rpm for 10 min, the supernatant was transferred to a glass tube and evaporated to dryness using a TurboVap® LV Concentration Workstation (Caliper Lifesciences, Hopkinton, MA). The residue was reconstituted with 500 μL ethyl acetate, sonicated for 10 min, and vortexed for 10 sec. Samples were then centrifuged again and the resulting supernatant was transferred to a new glass tube and evaporated to dryness. Finally, samples were reconstituted in 100 μL mobile phase, and 50 μL was injected into the HPLC system for analysis.
(§4) The averages of the BA-TPQ concentration in plasma and tissues following intravenous and intraperitoneal administration to three animals per time point were used for pharmacokinetic analyses using a two-compartmental model and a non-compartment model, respectively. The following pharmacokinetic parameters were estimated using Phoenix WinNonlin 6.0 (Mountain View, CA): area under the concentration-time curve (AUC, h·μg/mL), half-life (T½, h), maximum concentration (Cmax, μg/mL), time of the maximum concentration (Tmax, h), and clearance (CL, mL/h/kg), as applicable. Bioavailability (X) was calculated as X= [AUCip × doseiv]/[AUCiv × doseip].

[3] = Pharmacokinetics, excretion and strain comparison stated for CD-1 and nude mice together; type: in vivo
Experimental: as §1, §2, §3, §4

[4] = test system: prostate and breast cancer cell lines; parameters: method as in PMID 19274441, PMID 19936915; details: cell lines with varying p53 status; cited from earlier work
[5] = female, ICR/CD-1, mouse, liver, IV 5 mg/kg
[6] = female, ICR/CD-1, mouse, lungs, IP 10 mg/kg
[7] = female, ICR/CD-1, mouse, lungs, IV 5 mg/kg
[8] = female, mouse, brain, IP 10 mg/kg
[9] = female, mouse, brain, IV 5 mg/kg
[10] = female, mouse, heart, IP 10 mg/kg
[11] = female, mouse, heart, IV 5 mg/kg
[12] = female, mouse, kidneys, IP 10 mg/kg
[13] = female, mouse, kidneys, IV 5 mg/kg
[14] = female, mouse, liver, IP 10 mg/kg
[15] = female, mouse, lungs, IV 5 mg/kg
[16] = female, mouse, plasma, IP 10 mg/kg
[17] = female, mouse, plasma, IV 5 mg/kg
[18] = female, mouse, spleen, IP 10 mg/kg
[19] = female, mouse, spleen, IV 5 mg/kg
[20] = IV 5 mg/kg, both strains, 24 hr collection

Compound: O=C1C(NCc2ccccc2)=CC2=NCCc3c[nH]c1c32 [BA-TPQ, 7-(benzylamino)-1,3,4,8-tetrahydropyrrolo[4,3,2-de]quinolin-8(1H)-one]
- Stability in mouse plasma (in words) ([1]; 37 °C, 4 °C and −80 °C, 0.5 μM and 5.0 μM): very stable
- Amount Remaining ([1]; 4 °C, 24 hr, 0.5 μM): 94%
- Amount Remaining ([1]; 4 °C, 24 hr, 5.0 μM): 117%
- Amount Remaining ([1]; 37 °C, 8 hr, 0.5 μM): 92%
- Amount Remaining ([1]; 37 °C, 8 hr, 5.0 μM): 114%
- Amount Remaining ([1]; −80 °C, 4 weeks, 0.5 μM): 95%
- Amount Remaining ([1]; −80 °C, 4 weeks, 5.0 μM): 100%
- Time of greatest plasma concentration ([2]; IP 10 mg/kg): 15 min
- Cl ([2]; brain, IP 10 mg/kg): 2920 mL/min/kg
- AUC [2, 5]: 650 ng·h/mL
- Cmax [2, 5]: 690 ng/mL
- clearance [2, 5]: 900 mL/min/kg
- half-life [2, 5]: 39 min
- AUC [2, 6]: 9150 ng·h/mL
- Cmax [2, 6]: 12400 ng/mL
- Tmax [2, 6]: 4.8 min
- half-life [2, 6]: 30 min
- AUC [2, 7]: 4980 ng·h/mL
- clearance [2, 7]: 117 mL/min/kg
- AUC [2, 8]: 190 ng·h/mL
- Cmax [2, 8]: 180 ng/mL
- Tmax [2, 8]: 15 min
- half-life [2, 8]: 49.8 min
- AUC [2, 9]: 220 ng·h/mL
- Cmax [2, 9]: 750 ng/mL
- clearance [2, 9]: 2630 mL/min/kg
- half-life [2, 9]: 12.6 min
- AUC [2, 10]: 4660 ng·h/mL
- Cmax [2, 10]: 7240 ng/mL
- Tmax [2, 10]: 4.8 min
- half-life [2, 10]: 42.6 min
- AUC [2, 11]: 1020 ng·h/mL
- Cmax [2, 11]: 5340 ng/mL
- clearance [2, 11]: 567 mL/min/kg
- half-life [2, 11]: 7.8 min
- AUC [2, 12]: 8060 ng·h/mL
- Cmax [2, 12]: 8360 ng/mL
- Tmax [2, 12]: 15 min
- half-life [2, 12]: 28.8 min
- AUC [2, 13]: 2830 ng·h/mL
- Cmax [2, 13]: 9680 ng/mL
- clearance [2, 13]: 200 mL/min/kg
- half-life [2, 13]: 12 min
- AUC [2, 14]: 150 ng·h/mL
- Cmax [2, 14]: 470 ng/mL
- Tmax [2, 14]: 4.8 min
- half-life [2, 14]: 14.4 min
- Cmax [2, 15]: 13000 ng/mL
- half-life [2, 15]: 15.6 min
- AUC [2, 16]: 110 ng·h/mL
- Cmax [2, 16]: 110 ng/mL
- Tmax [2, 16]: 4.8 min
- half-life [2, 16]: 51.6 min
- bioavailability ([2]; female, mouse, plasma, IP 10 mg/kg vs IV 5 mg/kg, read-out: Intraperitoneal bioavailability): 74%
- AUC [2, 17]: 70 ng·h/mL
- Cmax [2, 17]: 360 ng/mL
- clearance [2, 17]: 8200 mL/min/kg
- half-life [2, 17]: 8.4 min
- AUC [2, 18]: 11300 ng·h/mL
- Cmax [2, 18]: 23000 ng/mL
- Tmax [2, 18]: 4.8 min
- half-life [2, 18]: 24.6 min
- AUC [2, 19]: 1800 ng·h/mL
- Cmax [2, 19]: 4590 ng/mL
- clearance [2, 19]: 317 mL/min/kg
- half-life [2, 19]: 16.2 min
- Cl ([2]; heart, IP 10 mg/kg): 130 mL/min/kg
- Cl ([2]; kidneys, IP 10 mg/kg): 67 mL/min/kg
- Cl ([2]; liver, IP 10 mg/kg): 4100 mL/min/kg
- Cl ([2]; lungs, IP 10 mg/kg): 67 mL/min/kg
- Cl ([2]; plasma, IP 10 mg/kg): 5750 mL/min/kg
- Concentration in the plasma for the first 30 minutes ([2]; single bolus IV 5 mg/kg): up to 0.18 μg/mL
- Cl ([2]; spleen, IP 10 mg/kg): 50 mL/min/kg
- Amount excreted in the feces ([3]; IP 10 mg/kg): less than 1%
- Amount excreted in the urine ([3]; IP 10 mg/kg, first 24 h after dosing): less than 0.02 % of the administered dose
- AUC in the brain, nude mice versus CD-1 mice ([3]; IP injection): ~ 5 fold
- Accumulation in the liver, nude mice versus CD-1 mice ([3]; IP injection): ~ 18 fold
- Detectability in the lungs at 24 h ([3]; IV 5 mg/kg, both CD-1 and nude mice): still detectable
- Amount excreted in feces [3, 20]: less than 1 % of the administered dose
- Amount excreted in the urine [3, 20]: less than 0.1 % of the administered dose
- Detectability in plasma ([3]; IV 5 mg/kg, either strain of mice): no longer detectable in plasma after 2 h
- Exposure of the heart (AUC), nude mice versus CD-1 mice ([3]; IV injection): approximately 6 fold
- bioavailability ([3]; female, CD-1 and nude (nu/nu), mouse, plasma, ip, 10 mg/kg, mice, IP injection, read-out: Intraperitoneal bioavailability (authors' overall estimate)): ~70%
- Blood-brain barrier passage (AUC in brain comparable to plasma) ([3]; mice): can cross the blood-brain barrier
- Intraperitoneal bioavailability (authors' overall estimate) ([3]; mice, IP injection): > 70%
- In vitro growth of prostate and breast cancer cell lines [4]: inhibit in vitro growth
